Assays:
[1] = test system: P. aeruginosa PAO1 and QSC102; assay: Bacterial growth in the PAO1 / QSC102 screening assay; assay type: cell-based, Pseudomonas aeruginosa; settings: in the presence of test compound
Protocol: (§1) Microtiter plates are prepared by adding 200 μL Luria Broth (“LB”) agar, containing 0.008% 5-bromo-4-chloro-3-indolyl-β-D-galactose (X-gal) to each well. Overnight cultures of PAO1 and QSC102 are subcultured in LB to a starting absorbance at 600 nm (“A600”) of 0.05 and grown at 37° C to an A600 of 1.0. PAO1 is diluted 2.5×10^5-fold in LB and 5 μL of this is applied to the surface of the LB agar in each well. Plates are then dried in a laminar flow hood for 60 minutes. A tenfold dilution of QSC102 in LB is used to inoculate each well using a replicator. Plates are then sealed and incubated at 37° C for 40 hours. Growth and color development are evaluated visually and the data is recorded with a camera.
(§2) The test compound was present in a microtiter well and overlaid with LB agar and 5-bromo-4-chloro-3-indolyl-β-D-galactose (X-gal). Both strains were spotted on the agar in each well. […] Inhibition of signaling was evaluated qualitatively by the absence or weakening of the blue color development.

[2] = test system: quorum sensing signaling (Las system), QSC102 lacZ; assay: Two-strain (PAO1 / QSC102) screening assay for quorum sensing inhibiting compounds; assay type: cell-based, Pseudomonas aeruginosa; settings: PAO1 + QSC102 on LB agar with X-gal, visual
Protocol: In this example, the screening assay used two strains of P. aeruginosa: a wild type P. aeruginosa (PAO1) and QSC102, from Example 1 (see FIG. 8). This assay will detect inhibition of all aspects of quorum sensing signaling, e.g., signal generation and signal reception.
as §1, §2

[3] = target: T1, RhlI (Pseudomonas aeruginosa, UniProt P54291); settings: substrate of RhlI; cited from earlier work
T1 construct: host or cells: LasI minus strain of P. aeruginosa (as described for the cited study, Parsek et al. 1999)
T1 sequence (P54291 whole entry): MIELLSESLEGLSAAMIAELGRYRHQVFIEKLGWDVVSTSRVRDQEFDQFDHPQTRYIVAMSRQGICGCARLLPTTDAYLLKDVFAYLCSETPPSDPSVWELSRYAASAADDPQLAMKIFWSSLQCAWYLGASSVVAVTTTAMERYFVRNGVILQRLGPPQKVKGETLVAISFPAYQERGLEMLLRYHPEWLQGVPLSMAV

| Compound | Bacterial growth [1] | Concentration required to suppress color development completely [2] | Inhibition of signaling (blue color development) [2] | Km [3] | vmax compared to C4-ACP [3] |
| --- | --- | --- | --- | --- | --- |
| CC(=O)C1CCOC1=O (stereo not drawn) [acetyl-butyrolactone] | not inhibited | ~20 mM | showed an inhibitory effect | – | – |
| CCCC(=O)SCCNC(=O)CCNC(=O)[C@H](O)C(C)(C)COP(=O)(O)OP(=O)(O)OC[C@H]1O[C@@H](n2cnc3c(N)ncnc32)[C@H](O)[C@@H]1OP(=O)(O)O [butanoyl-CoA] | – | – | – | 230 µM | one order of magnitude slower |
| O=C1CCCO1 [butyrolactone] | not inhibited | ~20 mM | showed an inhibitory effect | – | – |
| butanoyl-acyl carrier protein [C4-ACP] | – | – | – | 6 µM | – |
